According to patent publication US20170190671A1, “BIS(ARYL)CATECHOL DERIVATIVES AS HERBICIDES” (E I DU PONT DE NEMOURS AND COMPANY, priority 2014, published 2017):

Key:
Assay type in all cases: in vivo
[1] = tested on: blackgrass (Alopecurus myosuroides); assay: Test C preemergence; conditions: Alopecurus myosuroides, pre-emergence, 336 h, scale 0 to 100, read-out: Plant response rating, Blackgrass
How it was run: (§1)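 0-100 visual injury score (100 = complete control), assessed at 13-15 d after treatment against controls; surfactant-containing solvent formulation applied preemergence to seeded loam-sand soil or sprayed onto 1- to 4-leaf greenhouse plants.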

[2] = tested on: yellow nutsedge (Cyperus esculentus); assay: Test C preemergence; conditions: Cyperus, pre-emergence, 336 h, scale 0 to 100, read-out: Plant response rating, Nutsedge, Yellow
How it was run: as §1

[3] = tested on: oilseed rape (Brassica napus); assay: Test C preemergence; conditions: Brassica napus, pre-emergence, scale 0 to 100, read-out: Plant response rating, Oilseed Rape
How it was run: as §1

[4] = tested on: velvetleaf (Abutilon theophrasti); assay: Test C postemergence; conditions: Abutilon theophrasti, post-emergence, Postemergence, scale 0 to 100, read-out: Plant response rating, Velvetleaf
[5] = tested on: blackgrass (Alopecurus myosuroides); assay: Test C postemergence; conditions: Alopecurus myosuroides, post-emergence, 336 h, Postemergence, scale 0 to 100, read-out: Plant response rating, Blackgrass
wild oat (Avena fatua) = assay: Test C postemergence; conditions: Avena fatua, post-emergence, Postemergence, scale 0 to 100, read-out: Plant response rating, Oat, Wild
[6] = tested on: yellow nutsedge (Cyperus esculentus); assay: Test C postemergence; conditions: Cyperus, post-emergence, 336 h, Postemergence, scale 0 to 100, read-out: Plant response rating, Nutsedge, Yellow
[7] = tested on: large (Lg) crabgrass (Digitaria sanguinalis); assay: Test C postemergence; conditions: Digitaria sanguinalis, post-emergence, 336 h, Postemergence, scale 0 to 100, read-out: Plant response rating, Crabgrass, Large
[8] = tested on: ragweed (common ragweed, Ambrosia elatior); assay: Test C postemergence; conditions: Ambrosia artemisiifolia, post-emergence, 336 h, Postemergence, scale 0 to 100, read-out: Plant response rating, Ragweed
corn (Zea mays) = assay: Test C postemergence; conditions: Zea mays, post-emergence, 336 h, Postemergence, scale 0 to 100
[9] = tested on: Italian ryegrass (Lolium multiflorum); assay: Test C postemergence; conditions: Lolium multiflorum, post-emergence, 336 h, Postemergence, scale 0 to 100, read-out: Plant response rating, Ryegrass, Italian
[10] = tested on: morningglory (Ipomoea coccinea); assay: Test C postemergence; conditions: Ipomoea, post-emergence, 336 h, Postemergence, scale 0 to 100, read-out: Plant response rating, Morningglory
[11] = tested on: lambsquarters (Chenopodium album); assay: Test C postemergence; conditions: Chenopodium album, post-emergence, 336 h, Postemergence, scale 0 to 100, read-out: Plant response rating, Lambsquarters
kochia (Kochia scoparia) = assay: Test C postemergence; conditions: Bassia scoparia, post-emergence, Postemergence, scale 0 to 100, read-out: Plant response rating, Kochia
[12] = tested on: barnyardgrass (Echinochloa crus-galli); assay: Test C postemergence; conditions: Echinochloa crus-galli, post-emergence, Postemergence, scale 0 to 100, read-out: Plant response rating, Barnyardgrass
[13] = tested on: chickweed (common chickweed, Stellaria media); assay: Test C postemergence; conditions: Stellaria media, post-emergence, Postemergence, scale 0 to 100, read-out: Plant response rating, Chickweed
soybean (Glycine max) = assay: Test C postemergence; conditions: Glycine max, post-emergence, Postemergence, scale 0 to 100, read-out: Plant response rating, Soybean
[14] = tested on: winter wheat (Triticum aestivum); assay: Test C postemergence; conditions: Triticum aestivum, post-emergence, 336 h, Postemergence, scale 0 to 100, read-out: Plant response rating, Wheat
[15] = tested on: oilseed rape (Brassica napus); assay: Test C postemergence; conditions: Brassica napus, post-emergence, Postemergence, scale 0 to 100, read-out: Plant response rating, Oilseed Rape
[16] = tested on: galium (catchweed bedstraw, Galium aparine); assay: Test C postemergence; conditions: Galium, post-emergence, 336 h, Postemergence, scale 0 to 100, read-out: Plant response rating, Galium
[17] = tested on: johnsongrass (Sorghum halepense); assay: Test C postemergence; conditions: Sorghum halepense, post-emergence, 336 h, Postemergence, scale 0 to 100, read-out: Plant response rating, Johnsongrass
[18] = tested on: giant foxtail (Setaria faberii); assay: Test C postemergence; conditions: Setaria faberi, post-emergence, 336 h, Postemergence, scale 0 to 100, read-out: Plant response rating, Foxtail, Giant

Compound: Fc1cccc(Oc2ncc(C(F)(F)F)cn2)c1Oc1ncc(Cl)cn1 [Compound 42, 5-chloro-2-[2-fluoro-6-[[5-(trifluoromethyl)-2-pyrimidinyl]oxy]phenoxy]pyrimidine]
- pest or weed control at 31 g/ha ([1]; 31 g ai/ha, preemergence): 65%
- pest or weed control at 62 g/ha ([1]; 62 g ai/ha, preemergence): 90%
- pest or weed control at 125 g/ha ([1]; 125 g ai/ha, preemergence): 90%
- pest or weed control at 16 g/ha ([1]; Preemergence, 16 g ai/ha): 35%
- pest or weed control at 31 g/ha ([2]; 31 g ai/ha, preemergence): 10%
- pest or weed control at 62 g/ha ([2]; 62 g ai/ha, preemergence): 50%
- pest or weed control at 125 g/ha ([2]; 125 g ai/ha, preemergence): 75%
- pest or weed control at 16 g/ha ([2]; Preemergence, 16 g ai/ha): 0%
- plant injury at 31 g/ha ([3]; 31 g ai/ha, preemergence): 100%
- plant injury at 62 g/ha ([3]; 62 g ai/ha, preemergence): 100%
- plant injury at 125 g/ha ([3]; 125 g ai/ha, preemergence): 100%
- plant injury at 16 g/ha ([3]; Preemergence, 16 g ai/ha): 98%
- pest or weed control at 31 g/ha ([4]; 31 g ai/ha): 60%
- pest or weed control at 62 g/ha ([4]; 62 g ai/ha): 70%
- pest or weed control at 125 g/ha ([4]; 125 g ai/ha): 85%
- pest or weed control at 16 g/ha ([5]; 16 g ai/ha): 10%
- pest or weed control at 31 g/ha ([5]; 31 g ai/ha): 20%
- pest or weed control at 62 g/ha ([5]; 62 g ai/ha): 20%
- pest or weed control at 125 g/ha ([5]; 125 g ai/ha): 80%
- pest or weed control at 31 g/ha (wild oat (Avena fatua); 31 g ai/ha): 10%
- pest or weed control at 62 g/ha (wild oat (Avena fatua); 62 g ai/ha): 40%
- pest or weed control at 125 g/ha (wild oat (Avena fatua); 125 g ai/ha): 60%
- pest or weed control at 31 g/ha ([6]; 31 g ai/ha): 0%
- pest or weed control at 62 g/ha ([6]; 62 g ai/ha): 5%
- pest or weed control at 125 g/ha ([6]; 125 g ai/ha): 5%
- pest or weed control at 16 g/ha ([7]; 16 g ai/ha): 10%
- pest or weed control at 31 g/ha ([7]; 31 g ai/ha): 20%
- pest or weed control at 62 g/ha ([7]; 62 g ai/ha): 15%
- pest or weed control at 125 g/ha ([7]; 125 g ai/ha): 40%
- pest or weed control at 31 g/ha ([8]; 31 g ai/ha): 65%
- pest or weed control at 62 g/ha ([8]; 62 g ai/ha): 70%
- pest or weed control at 125 g/ha ([8]; 125 g ai/ha): 65%
- Corn plant response rating (crop injury, 0 = no effect, 100 = complete kill) at 16 g/ha (corn (Zea mays); 16 g ai/ha): 5%
- Corn plant response rating (crop injury, 0 = no effect, 100 = complete kill) at 31 g/ha (corn (Zea mays); 31 g ai/ha): 5%
- Corn plant response rating (crop injury, 0 = no effect, 100 = complete kill) at 62 g/ha (corn (Zea mays); 62 g ai/ha): 10%
- Corn plant response rating (crop injury, 0 = no effect, 100 = complete kill) at 125 g/ha (corn (Zea mays); 125 g ai/ha): 25%
- pest or weed control at 31 g/ha ([9]; 31 g ai/ha): 0%
- pest or weed control at 62 g/ha ([9]; 62 g ai/ha): 10%
- pest or weed control at 125 g/ha ([9]; 125 g ai/ha): 35%
- pest or weed control at 31 g/ha ([10]; 31 g ai/ha): 70%
- pest or weed control at 62 g/ha ([10]; 62 g ai/ha): 75%
- pest or weed control at 125 g/ha ([10]; 125 g ai/ha): 85%
- pest or weed control at 16 g/ha ([11]; 16 g ai/ha): 80%
- pest or weed control at 31 g/ha ([11]; 31 g ai/ha): 80%
- pest or weed control at 62 g/ha ([11]; 62 g ai/ha): 90%
- pest or weed control at 125 g/ha ([11]; 125 g ai/ha): 95%
- pest or weed control at 16 g/ha (kochia (Kochia scoparia); 16 g ai/ha): 90%
- pest or weed control at 31 g/ha (kochia (Kochia scoparia); 31 g ai/ha): 95%
- pest or weed control at 62 g/ha (kochia (Kochia scoparia); 62 g ai/ha): 100%
- pest or weed control at 125 g/ha (kochia (Kochia scoparia); 125 g ai/ha): 100%
- pest or weed control at 16 g/ha ([12]; 16 g ai/ha): 5%
- pest or weed control at 31 g/ha ([12]; 31 g ai/ha): 5%
- pest or weed control at 62 g/ha ([12]; 62 g ai/ha): 10%
- pest or weed control at 125 g/ha ([12]; 125 g ai/ha): 20%
- pest or weed control at 16 g/ha ([13]; 16 g ai/ha): 20%
- pest or weed control at 31 g/ha ([13]; 31 g ai/ha): 90%
- pest or weed control at 62 g/ha ([13]; 62 g ai/ha): 95%
- pest or weed control at 125 g/ha ([13]; 125 g ai/ha): 95%
- plant injury at 31 g/ha (soybean (Glycine max); 31 g ai/ha): 55%
- plant injury at 62 g/ha (soybean (Glycine max); 62 g ai/ha): 65%
- plant injury at 125 g/ha (soybean (Glycine max); 125 g ai/ha): 85%
- plant injury at 31 g/ha ([14]; 31 g ai/ha): 0%
- plant injury at 62 g/ha ([14]; 62 g ai/ha): 0%
- plant injury at 125 g/ha ([14]; 125 g ai/ha): 10%
- plant injury at 31 g/ha ([15]; 31 g ai/ha): 50%
- plant injury at 62 g/ha ([15]; 62 g ai/ha): 70%
- plant injury at 125 g/ha ([15]; 125 g ai/ha): 85%
- pest or weed control at 16 g/ha ([16]; 16 g ai/ha): 75%
- pest or weed control at 31 g/ha ([16]; 31 g ai/ha): 98%
- pest or weed control at 62 g/ha ([16]; 62 g ai/ha): 100%
- pest or weed control at 125 g/ha ([16]; 125 g ai/ha): 100%
- pest or weed control at 16 g/ha ([17]; 16 g ai/ha): 10%
- pest or weed control at 31 g/ha ([17]; 31 g ai/ha): 10%
- pest or weed control at 62 g/ha ([17]; 62 g ai/ha): 10%
- pest or weed control at 125 g/ha ([17]; 125 g ai/ha): 40%
- pest or weed control at 16 g/ha ([18]; 16 g ai/ha): 30%
- pest or weed control at 31 g/ha ([18]; 31 g ai/ha): 30%
- pest or weed control at 62 g/ha ([18]; 62 g ai/ha): 35%
- pest or weed control at 125 g/ha ([18]; 125 g ai/ha): 35%
